Source: ChEMBL document CHEMBL1142324, “Synthesis and cerebral uptake of 1-(1-[(11)C]methyl-1H-pyrrol-2-yl)-2-phenyl-2-(1-pyrrolidinyl)ethanone, a novel tracer for positron emission tomography studies of monoamine oxidase type A” (J Med Chem, 2008)

Tests used:
Assay type in all cases: ADME, organism-based, Sus scrofa
Settings in all cases: read-out: Stability
[1] = Metabolic stability in iv dosed pig plasma after 30 seconds
[2] = Metabolic stability in iv dosed pig plasma after 2 mins
[3] = Metabolic stability in iv dosed pig plasma after 10 mins
[4] = Metabolic stability in iv dosed pig plasma after 30 mins
[5] = Metabolic stability in iv dosed pig plasma after 50 mins

| Structure (SMILES) | remaining at 0.5 min [1] [%] | remaining at 2 min [2] [%] | remaining at 10 min [3] [%] | remaining at 0.5 h [4] [%] | remaining at 50 min [5] [%] |
| --- | --- | --- | --- | --- | --- |
| [11CH3]n1cccc1C(=O)[C@@H](c1ccccc1)N1CCCC1 | 99.7 | 98 | 68 | 41 | 24 |
| [11CH3]n1cccc1C(=O)[C@H](c1ccccc1)N1CCCC1 | 99.7 | 98 | 68 | 41 | 24 |
